Experimental data from ChEMBL document CHEMBL4177730, “Rational modification of semaxanib and sunitinib for developing a tumor growth inhibitor targeting ATP binding site of tyrosine kinase” (2018).
Calls of active or inactive are those of the source.

Assays:
Assay type in all cases: functional, cell-based
CCRF-CEM = experiment: Growth inhibition of human CCRF-CEM cells at 10 uM after 48 hrs by sulforhodamine B assay
HL-60(TB) = experiment: Growth inhibition of human HL-60(TB) cells at 10 uM after 48 hrs by sulforhodamine B assay
K562 = experiment: Growth inhibition of human K562 cells at 10 uM after 48 hrs by sulforhodamine B assay
MOLT-4 = experiment: Growth inhibition of human MOLT4 cells at 10 uM after 48 hrs by sulforhodamine B assay
RPMI-8226 = experiment: Growth inhibition of human RPMI8226 cells at 10 uM after 48 hrs by sulforhodamine B assay
SR = experiment: Growth inhibition of human SR cells at 10 uM after 48 hrs by sulforhodamine B assay
A549 = experiment: Growth inhibition of human A549/ATCC cells at 10 uM after 48 hrs by sulforhodamine B assay
EKVX = experiment: Growth inhibition of human EKVX cells at 10 uM after 48 hrs by sulforhodamine B assay
HOP-62 = experiment: Growth inhibition of human HOP62 cells at 10 uM after 48 hrs by sulforhodamine B assay
HOP-92 = experiment: Growth inhibition of human HOP92 cells at 10 uM after 48 hrs by sulforhodamine B assay
NCI-H226 = experiment: Growth inhibition of human NCI-H226 cells at 10 uM after 48 hrs by sulforhodamine B assay
NCI-H23 = experiment: Growth inhibition of human NCI-H23 cells at 10 uM after 48 hrs by sulforhodamine B assay
NCI-H322M = experiment: Growth inhibition of human NCI-H322M cells at 10 uM after 48 hrs by sulforhodamine B assay
NCI-H460 = experiment: Growth inhibition of human NCI-H460 cells at 10 uM after 48 hrs by sulforhodamine B assay
NCI-H522 = experiment: Growth inhibition of human NCI-H522 cells at 10 uM after 48 hrs by sulforhodamine B assay
COLO 205 = experiment: Growth inhibition of human COLO205 cells at 10 uM after 48 hrs by sulforhodamine B assay
HCC 2998 = experiment: Growth inhibition of human HCC2998 cells at 10 uM after 48 hrs by sulforhodamine B assay
HCT-116 = experiment: Growth inhibition of human HCT116 cells at 10 uM after 48 hrs by sulforhodamine B assay
HCT-15 = experiment: Growth inhibition of human HCT15 cells at 10 uM after 48 hrs by sulforhodamine B assay
HT-29 = experiment: Growth inhibition of human HT-29 cells at 10 uM after 48 hrs by sulforhodamine B assay
KM12 = experiment: Growth inhibition of human KM12 cells at 10 uM after 48 hrs by sulforhodamine B assay
SW-620 = experiment: Growth inhibition of human SW620 cells at 10 uM after 48 hrs by sulforhodamine B assay
SF-268 = experiment: Growth inhibition of human SF268 cells at 10 uM after 48 hrs by sulforhodamine B assay
SF-295 = experiment: Growth inhibition of human SF295 cells at 10 uM after 48 hrs by sulforhodamine B assay
SF-539 = experiment: Growth inhibition of human SF539 cells at 10 uM after 48 hrs by sulforhodamine B assay
SNB-19 = experiment: Growth inhibition of human SNB19 cells at 10 uM after 48 hrs by sulforhodamine B assay
SNB-75 = experiment: Growth inhibition of human SNB75 cells at 10 uM after 48 hrs by sulforhodamine B assay
U-251 = experiment: Growth inhibition of human U251 cells at 10 uM after 48 hrs by sulforhodamine B assay
LOX IMVI = experiment: Growth inhibition of human LOXIMVI cells at 10 uM after 48 hrs by sulforhodamine B assay
Malme-3M = experiment: Growth inhibition of human MALME-3M cells at 10 uM after 48 hrs by sulforhodamine B assay
M14 = experiment: Growth inhibition of human M14 cells at 10 uM after 48 hrs by sulforhodamine B assay
MDA-MB-435 = experiment: Growth inhibition of human MDA-MB-435 cells at 10 uM after 48 hrs by sulforhodamine B assay
SK-MEL-2 = experiment: Growth inhibition of human SK-MEL-2 cells at 10 uM after 48 hrs by sulforhodamine B assay
SK-MEL-28 = experiment: Growth inhibition of human SK-MEL-28 cells at 10 uM after 48 hrs by sulforhodamine B assay
SK-MEL-5 = experiment: Growth inhibition of human SK-MEL-5 cells at 10 uM after 48 hrs by sulforhodamine B assay
UACC-62 = experiment: Growth inhibition of human UACC62 cells at 10 uM after 48 hrs by sulforhodamine B assay
IGROV-1 = experiment: Growth inhibition of human IGROV1 cells at 10 uM after 48 hrs by sulforhodamine B assay
OVCAR-3 = experiment: Growth inhibition of human OVCAR3 cells at 10 uM after 48 hrs by sulforhodamine B assay
OVCAR-4 = experiment: Growth inhibition of human OVCAR4 cells at 10 uM after 48 hrs by sulforhodamine B assay
OVCAR-5 = experiment: Growth inhibition of human OVCAR5 cells at 10 uM after 48 hrs by sulforhodamine B assay
OVCAR-8 = experiment: Growth inhibition of human OVCAR8 cells at 10 uM after 48 hrs by sulforhodamine B assay
NCI/ADR-RES = experiment: Growth inhibition of human NCI-ADR-RES cells at 10 uM after 48 hrs by sulforhodamine B assay
SK-OV-3 = experiment: Growth inhibition of human SKOV3 cells at 10 uM after 48 hrs by sulforhodamine B assay
786-0 = experiment: Growth inhibition of human 786-0 cells at 10 uM after 48 hrs by sulforhodamine B assay
A498 = experiment: Growth inhibition of human A498 cells at 10 uM after 48 hrs by sulforhodamine B assay
ACHN = experiment: Growth inhibition of human ACHN cells at 10 uM after 48 hrs by sulforhodamine B assay
CAKI-1 = experiment: Growth inhibition of human CAKI-1 cells at 10 uM after 48 hrs by sulforhodamine B assay
RXF 393 = experiment: Growth inhibition of human RXF393 cells at 10 uM after 48 hrs by sulforhodamine B assay
SN12C = experiment: Growth inhibition of human SN12C cells at 10 uM after 48 hrs by sulforhodamine B assay
TK-10 = experiment: Growth inhibition of human TK10 cells at 10 uM after 48 hrs by sulforhodamine B assay
UO-31 = experiment: Growth inhibition of human UO31 cells at 10 uM after 48 hrs by sulforhodamine B assay
PC-3 = experiment: Growth inhibition of human PC3 cells at 10 uM after 48 hrs by sulforhodamine B assay
DU-145 = experiment: Growth inhibition of human DU145 cells at 10 uM after 48 hrs by sulforhodamine B assay
MCF7 = experiment: Growth inhibition of human MCF7 cells at 10 uM after 48 hrs by sulforhodamine B assay
MDA-MB-231 = experiment: Growth inhibition of human MDA-MB-231 cells at 10 uM after 48 hrs by sulforhodamine B assay
Hs-578T = experiment: Growth inhibition of human Hs 578T cells at 10 uM after 48 hrs by sulforhodamine B assay
BT-549 = experiment: Growth inhibition of human BT549 cells at 10 uM after 48 hrs by sulforhodamine B assay
T47D = experiment: Growth inhibition of human T47D cells at 10 uM after 48 hrs by sulforhodamine B assay
MDA-MB-468 = experiment: Growth inhibition of human MDA-MB-468 cells at 10 uM after 48 hrs by sulforhodamine B assay

Measured: growth inhibition (GI)

O=C1/C(=C\c2ccc[nH]2)c2ccccc2N1c1c(Cl)cccc1Cl
inactive: all assays above
